Converted amounts (≈) assume the structure as drawn.
How the values were obtained:
[1] = Drug metabolism in mouse hepatocytes assessed as parent compound remaining at 10 uM incubated for 2 hrs by LC-MS analysis; assay type: ADME, cell-based, Hepatocyte; conditions: read-out: Stability
[2] = Half life in mouse whole blood at 5 uM by LC-MS/MS analysis; assay type: ADME, tissue-based
GTPase KRas = GTPase KRas (Homo sapiens, UniProt P01116, G12C)
[3] = Half life in dog whole blood at 5 uM by LC-MS/MS analysis; assay type: ADME, tissue-based, Canis lupus familiaris
[4] = Half life in human whole blood at 5 uM by LC-MS/MS analysis; assay type: ADME, tissue-based
[5] = target: Glutathione S-transferase P (Homo sapiens) (UniProt P09211); experiment: Drug metabolism in human whole blood assessed as GSTP1-1-mediated GSH conjugation; assay type: tissue-based
Sequence of Glutathione S-transferase P (Homo sapiens) (P09211 2-210 limits assumed): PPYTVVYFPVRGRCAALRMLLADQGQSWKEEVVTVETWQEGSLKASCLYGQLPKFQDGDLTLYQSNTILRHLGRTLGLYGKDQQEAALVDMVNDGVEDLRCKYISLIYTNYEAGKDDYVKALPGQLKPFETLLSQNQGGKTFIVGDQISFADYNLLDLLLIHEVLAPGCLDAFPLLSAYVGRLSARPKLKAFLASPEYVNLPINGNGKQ

[6] = Clearance in CD1 mouse at 3 mg/kg, iv; assay type: ADME, organism-based; conditions: in vivo
[7] = test system: GTPase KRas (Homo sapiens), P01116 [G12C]; experiment: In-vivo target engagement at KRAS G12C mutant in athymic nude-Foxn1nu mouse xenografted with human NCI-H358 cells assessed as KRAS G12C modification level in tumor lysate at 10 mg/kg, po dosed via gavage as single administration measured after 6 hrs by LC-MS analysis relative to control; assay type: functional, organism-based; conditions: Neoplasm
Sequence of GTPase KRas (Homo sapiens), P01116 [G12C] (P01116 whole entry G12C): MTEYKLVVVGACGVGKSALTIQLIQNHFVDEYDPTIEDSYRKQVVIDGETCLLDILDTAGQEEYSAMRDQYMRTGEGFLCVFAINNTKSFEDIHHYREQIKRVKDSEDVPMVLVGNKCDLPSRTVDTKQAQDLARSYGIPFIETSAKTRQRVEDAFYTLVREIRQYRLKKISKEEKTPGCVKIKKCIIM

[8] = test system: GTPase KRas (Homo sapiens), P01116 [G12C]; experiment: In-vivo target engagement at KRAS G12C mutant in athymic nude-Foxn1nu mouse xenografted with human NCI-H358 cells assessed as KRAS G12C modification level in tumor lysate at 100 mg/kg, po dosed via gavage as single administration measured after 6 hrs by LC-MS analysis relative to contro; assay type: functional, organism-based; conditions: Neoplasm
[9] = Volume of distribution at steady state in beagle dog at 3 mg/kg, iv; assay type: ADME, organism-based, Canis lupus familiaris; conditions: in vivo, read-out: Vdss
[10] = AUC (infinity) in CD1 mouse at 30 mg/kg, po; assay type: ADME, organism-based; set-up: dose 30 mg/kg, time infinity, route oral; conditions: in vivo
[11] = Cmax in beagle dog at 10 mg/kg, po; assay type: ADME, organism-based, Canis lupus familiaris; set-up: dose 10 mg/kg, route oral; conditions: in vivo
[12] = test system: GTPase KRas (Homo sapiens), P01116 [G12C]; experiment: In-vivo target engagement at KRAS G12C mutant in athymic nude-Foxn1nu mouse xenografted with human NCI-H358 cells assessed as KRAS G12C modification level in tumor lysate at 30 mg/kg, po dosed via gavage as single administration measured after 6 hrs by LC-MS analysis relative to control; assay type: functional, organism-based; conditions: Neoplasm
[13] = Oral bioavailability in beagle dog at 10 mg/kg; assay type: ADME, organism-based, Canis lupus familiaris; conditions: in vivo
[14] = AUC (infinity) in beagle dog at 10 mg/kg, po; assay type: ADME, organism-based, Canis lupus familiaris; set-up: dose 10 mg/kg, time infinity, route oral; conditions: in vivo
[15] = Clearance in beagle dog at 3 mg/kg, iv; assay type: ADME, organism-based, Canis lupus familiaris; conditions: in vivo
MIA PaCa-2 [16] = experiment: Antitumor activity against human MIAPaCa2 cells xenografted in athymic nude-Foxn1nu mouse assessed as induction of tumor regression at 30 mg/kg, po dosed daily via gavage for 16 days followed by drug cessation and measured up to 40 days; assay type: functional
MIA PaCa-2 [17] = experiment: Antitumor activity against human MIAPaCa2 cells xenografted in athymic nude-Foxn1nu mouse assessed as induction of tumor regression at 30 mg/kg, po dosed daily via gavage for 16 days; assay type: functional
[18] = Tmax in beagle dog at 10 mg/kg, po; assay type: ADME, organism-based, Canis lupus familiaris; conditions: in vivo
[19] = Tmax in CD1 mouse at 30 mg/kg, po; assay type: ADME, organism-based; conditions: in vivo
[20] = Half life in CD1 mouse at 3 mg/kg, iv; assay type: ADME, organism-based; conditions: in vivo
[21] = Half life in beagle dog at 3 mg/kg, iv; assay type: ADME, organism-based, Canis lupus familiaris; conditions: in vivo
[22] = Volume of distribution at steady state in CD1 mouse at 3 mg/kg, iv; assay type: ADME, organism-based; conditions: in vivo, read-out: Vdss
[23] = Cmax in CD1 mouse at 30 mg/kg, po; assay type: ADME, organism-based; set-up: dose 30 mg/kg, route oral; conditions: in vivo
[24] = Oral bioavailability in CD1 mouse at 30 mg/kg; assay type: ADME, organism-based; conditions: in vivo
[25] = Half life in presence of GSH in phosphate buffer at 1 uM at 37 degC by LC-MS/M analysis; assay type: physicochemical; conditions: phosphate buffer with GSH
[26] = Hepatic extraction ratio in human hepatocytes at 10 uM incubated for 2 hrs by LC-MS analysis; assay type: ADME, cell-based, Hepatocyte; conditions: read-out: ERH
[27] = Hepatic extraction ratio in human liver microsomes; assay type: ADME, Microsome; conditions: read-out: ERH
[28] = Cmax in CD1 mouse at 10 mg/kg, po; assay type: ADME, organism-based; set-up: dose 10 mg/kg, route oral; conditions: in vivo
[29] = Oral bioavailability in CD1 mouse at 10 mg/kg; assay type: ADME, organism-based; conditions: in vivo
[30] = AUC (infinity) in CD1 mouse at 10 mg/kg, po; assay type: ADME, organism-based; set-up: dose 10 mg/kg, route oral, time infinity; conditions: in vivo
[31] = Tmax in CD1 mouse at 10 mg/kg, po; assay type: ADME, organism-based; conditions: in vivo
[32] = Permeability ratio in pig LLC-PK1 cells; assay type: ADME, cell-based, Sus scrofa
[33] = Apparent permeability in pig LLC-PK1 cells; assay type: ADME, cell-based, Sus scrofa; conditions: read-out: permeability
[34] = Protein binding in mouse plasma; assay type: ADME, cell-free; conditions: read-out: PPB (converted)
[35] = Solubility in FaSSIF at pH 6.5; assay type: physicochemical
[36] = test system: GTPase KRas (Homo sapiens), P01116 [G12C]; experiment: Inhibition of KRAS G12C mutant in human NCI-H358 cells assessed as reduction in ERK phosphorylation incubated for 3 hrs by in-cell western method
[37] = Protein binding in human plasma; assay type: ADME, cell-free; conditions: read-out: PPB (converted)

Sequence of GTPase KRas (P01116 whole entry G12C): as above

C=CC(=O)N1CCN(c2nc(OC[C@@H]3CCCN3C)nc3c2CCN(c2cc(O)cc4ccccc24)C3)CC1
remaining at 2 h, 10 µM [1]: 4%

C=C(OC)C(=O)N1CCN(c2nc(OC[C@@H]3CCCN3C)nc3c2CCN(c2cccc4cccc(Cl)c24)C3)C[C@@H]1CC#N
half-life at 5 µM [2]: > 50 h | IC50 (GTPase KRas): > 5000 nM | half-life at 5 µM [3]: > 50 h | half-life at 5 µM [4]: 40 h

C=CC(=O)N1CCN(c2nc(OC[C@@H]3CCCN3C)nc3c2CCN(c2cccc4cccc(Cl)c24)C3)C[C@@H]1CC#N
Drug metabolism [5]: Metabolite detected | clearance [6]: 37.3 mL/min/kg | Activity [7]: 70% | Activity [8]: > 90% | Vd [9]: 7.91 L/kg | half-life at 5 µM [2]: 5 h | AUC(0-inf) [10]: 2270 ng·h/mL | Cmax [11]: 16.3 ng/mL | Activity [12]: 89% | bioavailability [13]: 4.12% | AUC(0-inf) [14]: 31.9 ng·h/mL | clearance [15]: 225 mL/min/kg | Activity (MIA PaCa-2 [16]): 100% | Activity (MIA PaCa-2 [17]): 100% | Tmax [18]: 0.833 h | half-life at 5 µM [3]: 2 h | Tmax [19]: 0.25 h | half-life [20]: 0.496 h | half-life [21]: 0.826 h | half-life at 5 µM [4]: 14 h | Vd [22]: 0.867 L/kg | Cmax [23]: 2460 ng/mL | bioavailability [24]: 16.9%

C=CC(=O)N1CCN(c2nc(OC[C@@H]3CCCN3C)nc3c2CCN(c2c(C(C)C)ccc4[nH]ncc24)C3)CC1
IC50 (GTPase KRas): 1180 nM

C=CC(=O)N1CCN(c2nc(OC[C@@H]3CCCN3C)nc3c2CCN(c2cccc4cccc(C)c24)C3)C[C@@H]1CC#N
Drug metabolism [5]: Metabolite detected | clearance [6]: 31.6 mL/min/kg | Activity [7]: 20% | Activity [8]: 80% | Vd [9]: 6.16 L/kg | IC50 (GTPase KRas): 1 nM | AUC(0-inf) [10]: 4910 ng·h/mL | Cmax [11]: 17.8 ng/mL | Activity [12]: 60% | bioavailability [13]: 3.67% | AUC(0-inf) [14]: 39.5 ng·h/mL | clearance [15]: 151 mL/min/kg | Activity (MIA PaCa-2 [16]): 100% | Activity (MIA PaCa-2 [17]): 100% | Tmax [18]: 1.17 h | Tmax [19]: 0.5 h | half-life [20]: 1.33 h | half-life [21]: 0.966 h | Vd [22]: 1.91 L/kg | Cmax [23]: 1660 ng/mL | bioavailability [24]: 31.1%

C=CC(=O)N1CCN(c2nc(OC[C@@H]3CCCN3C)nc3c2CCN(c2cccc4ccccc24)C3)C(CC#N)C1 (stereo partly specified)
IC50 (GTPase KRas): 3320 nM

C=CC(=O)N1CCN(c2nc(OC[C@@H]3CCCN3C)nc3c2CCN(c2cccc4cccc(CC)c24)C3)C[C@@H]1CC#N
IC50 (GTPase KRas): 6 nM

C=CC(=O)N1CCN(c2nc(OC[C@@H]3CCCN3C)nc3c2CCN(c2cccc4ccccc24)C3)C[C@H]1CC#N
half-life at 1 µM [25]: 1 h | IC50 (GTPase KRas): 1020 nM

C=CC(=O)N1CCN(c2nc(OC[C@@H]3CCCN3C)nc3c2CCN(c2cccc4cccc(OC)c24)C3)C[C@@H]1CC#N
IC50 (GTPase KRas): 22 nM

C=CC(=O)N1CCN(c2nc(OC[C@@H]3CCCN3C)nc3c2CCN(c2cccc4ccccc24)C3)C(CO)C1 (stereo partly specified)
IC50 (GTPase KRas): 4530 nM

C=CC(=O)N1CCN(c2nc(OC[C@@H]3CCCN3C)nc3c2CCN(c2c(C(F)(F)F)ccc4[nH]ncc24)C3)CC1
IC50 (GTPase KRas): 351 nM | hepatic extraction ratio at 2 h, 10 µM [26]: < 0.55 | hepatic extraction ratio [27]: < 0.55

COC/C=C/C(=O)N1CCN(c2nc(OC[C@@H]3CCCN3C)nc3c2CCN(c2cccc4cccc(Cl)c24)C3)C[C@@H]1CC#N
half-life at 5 µM [2]: 11 h | IC50 (GTPase KRas): 9 nM | half-life at 5 µM [3]: 22 h | half-life at 5 µM [4]: > 50 h

C=CC(=O)N1CCN(c2nc(OC[C@@H]3CCCN3C)nc3c2CCN(c2cccc4ccccc24)C3)CC1
Cmax [28]: 131 ng/mL | half-life at 1 µM [25]: 17 h | IC50 (GTPase KRas): 4400 nM | F [29]: 13.9% | AUC [30]: 302 ng·h/mL | Tmax [31]: 0.5 h | half-life [20]: 0.908 h | Vd [22]: 0.996 L/kg

C=CC(=O)N1CCN(c2nc(OC[C@@H]3CCCN3C)nc3c2CCN(c2cccc4ccccc24)C3)CC1CCO (stereo partly specified)
IC50 (GTPase KRas): > 5000 nM

C=CC(=O)N1CCN(c2nc(OC[C@@H]3CCCN3C)nc3c2CCN(c2cccc4ccccc24)C3)C[C@@H]1CC#N
half-life at 1 µM [25]: 4 h | Ratio [32]: 28 | IC50 (GTPase KRas): 10 nM | Papp [33]: 2.2 ×10⁻⁶ cm/s | hepatic extraction ratio at 2 h, 10 µM [26]: 0.9 | fraction unbound [34]: 0.05 | solubility [35]: 800 µg/mL (≈ 1450 µM) | fIC50 [36]: 200 nM | fraction unbound [37]: 0.05 | hepatic extraction ratio [27]: 0.45

C=CC(=O)N1CCN(c2nc(OC[C@@H]3CCCN3C)nc3c2CCN(c2cccc4ccccc24)C3)C(CCO)C1 (stereo partly specified)
IC50 (GTPase KRas): 4840 nM

C=CC(=O)N1CCN(c2nc(OC[C@@H]3CCCN3C)nc3c2CCN(c2c(CC)ccc4[nH]ncc24)C3)CC1
IC50 (GTPase KRas): 1080 nM

C=CC(=O)N1CCN(c2nc(OC[C@@H]3CCCN3C)nc3c2CCN(c2c(C)c(C)cc4[nH]ncc24)C3)CC1
IC50 (GTPase KRas): 254 nM | hepatic extraction ratio at 2 h, 10 µM [26]: < 0.55 | hepatic extraction ratio [27]: < 0.55

C=CC(=O)N1CCN(c2nc(OC[C@@H]3CCCN3C)nc3c2CCN(c2c(C)ccc4[nH]ncc24)C3)CC1
IC50 (GTPase KRas): 1500 nM

C=CC(=O)N1CCN(c2nc(OC[C@@H]3CCCN3C)nc3c2CCN(c2cccc4cccc(C#N)c24)C3)C[C@@H]1CC#N
IC50 (GTPase KRas): 64 nM

C=CC(=O)N1CCN(c2nc(OC[C@@H]3CCCN3C)nc3c2CCN(c2cccc4ccccc24)C3)CC1CO (stereo partly specified)
IC50 (GTPase KRas): 4630 nM

CN1CCC[C@H]1COc1nc2c(c(N3CCN(C(=O)/C=C/CF)[C@@H](CC#N)C3)n1)CCN(c1cccc3cccc(Cl)c13)C2
half-life at 5 µM [2]: 11 h | IC50 (GTPase KRas): 3 nM | half-life at 5 µM [3]: 9 h | half-life at 5 µM [4]: > 50 h

C=CC(=O)N1CCN(c2nc(OC[C@@H]3CCCN3C)nc3c2CCN(c2cccc4cccc(C(F)(F)F)c24)C3)C[C@@H]1CC#N
IC50 (GTPase KRas): 4 nM

C=CC(=O)N1CCN(c2nc(OC[C@@H]3CCCN3C)nc3c2CCN(c2cccc4ccccc24)C3)CC1CC#N (stereo partly specified)
IC50 (GTPase KRas): 14 nM

From ChEMBL document CHEMBL4610106, “Identification of the Clinical Development Candidate MRTX849, a Covalent KRASG12C Inhibitor for the Treatment of Cancer” (J Med Chem, 2020)
